{"source": "PubChem BioAssay AID180", "about": "(DTP/NCI, 2004)", "system": "BDF1 mice, Adenocarcinoma 755 s.c., tumor weight T/C", "test": "NCI In Vivo Anticancer Drug Screen. Data for tumor model Adenocarcinoma 755 (subcutaneous) in B6D2F1 (BDF1) mice", "settings": "endpoint: mean tumor weight, higher = larger tumour", "experimental": "The antitumor activity of compounds was measured in mice bearing transplantable tumors. Survival or tumor size were measured and the results are expressed as the measurement made in the treated group (T) divided by the measurement made in the vehicle treated control group (C). The tumor model used in this assay is Adenocarcinoma 755 (subcutaneous) in B6D2F1 (BDF1) mice", "key": {"[1]": {"settings": "dose: 2.5 mg/kg/injection, schedule: Q01DX011 (ip), vehicle: carboxymethylcellulose (CMC)"}, "[2]": {"settings": "dose: 10.0 mg/kg/injection, schedule: Q01DX011 (ip), vehicle: carboxymethylcellulose (CMC)"}}, "note": "Where “and” joins values, the source holds several entries; their conditions need not be identical. Identical values can stand only once."}
{"smiles": "c1nc(SC2CCCC2)c2[nH]cnc2n1", "values": [{"measurement": "T/C", "setting": "dose: 0.62 mg/kg/injection, schedule: Q01DX011 (ip), vehicle: carboxymethylcellulose (CMC)", "result": "76 % of control"}, {"measurement": "T/C", "setting": "dose: 0.62 mg/kg/injection, schedule: Q01DX011 (oral), vehicle: carboxymethylcellulose (CMC)", "result": "93 % of control"}, {"measurement": "T/C", "setting": "dose: 1.25 mg/kg/injection, schedule: Q01DX011 (ip), vehicle: carboxymethylcellulose (CMC)", "result": "66 % of control"}, {"measurement": "T/C", "setting": "[1]", "result": "45 % of control"}, {"measurement": "T/C", "setting": "dose: 2.5 mg/kg/injection, schedule: Q01DX011 (oral), vehicle: carboxymethylcellulose (CMC)", "result": "62 % of control"}, {"measurement": "T/C", "setting": "dose: 5.0 mg/kg/injection, schedule: Q01DX011 (oral), vehicle: carboxymethylcellulose (CMC)", "result": "6 % of control"}, {"measurement": "T/C", "setting": "dose: 5.2 mg/kg/injection, schedule: Q01DX011 (ip), vehicle: carboxymethylcellulose (CMC)", "result": "59 % of control"}, {"measurement": "T/C", "setting": "[2]", "result": "6 % of control"}, {"measurement": "T/C", "setting": "dose: 10.0 mg/kg/injection, schedule: Q01DX011 (oral), vehicle: carboxymethylcellulose (CMC)", "result": "3 % of control"}, {"measurement": "T/C", "setting": "dose: 10.5 mg/kg/injection, schedule: Q01DX011 (ip), vehicle: carboxymethylcellulose (CMC)", "result": "20 % of control"}, {"measurement": "T/C", "setting": "dose: 21.0 mg/kg/injection, schedule: Q01DX011 (ip), vehicle: carboxymethylcellulose (CMC)", "result": "6 % of control and 17 % of control"}, {"measurement": "T/C", "setting": "dose: 21.0 mg/kg/injection, schedule: Q01DX011 (oral), vehicle: carboxymethylcellulose (CMC)", "result": "7 % of control"}, {"measurement": "T/C", "setting": "dose: 42.0 mg/kg/injection, schedule: Q01DX011 (ip), vehicle: carboxymethylcellulose (CMC)", "result": "4 % of control"}, {"measurement": "T/C", "setting": "dose: 42.5 mg/kg/injection, schedule: Q01DX011 (ip), vehicle: carboxymethylcellulose (CMC)", "result": "1 % of control"}, {"measurement": "T/C", "setting": "dose: 84.0 mg/kg/injection, schedule: Q01DX011 (oral), vehicle: carboxymethylcellulose (CMC)", "result": "5 % of control"}, {"measurement": "T/C", "setting": "dose: 85.0 mg/kg/injection, schedule: Q01DX011 (ip), vehicle: carboxymethylcellulose (CMC)", "result": "1 % of control and 2 % of control"}, {"measurement": "T/C", "setting": "dose: 85.0 mg/kg/injection, schedule: Q01DX011 (oral), vehicle: carboxymethylcellulose (CMC)", "result": "2 % of control"}, {"measurement": "T/C", "setting": "dose: 87.0 mg/kg/injection, schedule: Q01DX001 (ip), vehicle: carboxymethylcellulose (CMC)", "result": "43 % of control"}, {"measurement": "T/C", "setting": "dose: 174.0 mg/kg/injection, schedule: Q01DX001 (ip), vehicle: carboxymethylcellulose (CMC)", "result": "44 % of control"}, {"measurement": "T/C", "setting": "dose: 347.0 mg/kg/injection, schedule: Q01DX001 (ip), vehicle: carboxymethylcellulose (CMC)", "result": "25 % of control"}, {"measurement": "T/C", "setting": "dose: 694.0 mg/kg/injection, schedule: Q01DX001 (ip), vehicle: carboxymethylcellulose (CMC)", "result": "24 % of control"}]}
{"smiles": "[I][Hg][CH2]C1OCCOC1[CH2][Hg][I]", "note": "(stereo not given)", "values": [{"measurement": "T/C", "setting": "[1]", "result": "73 % of control"}, {"measurement": "T/C", "setting": "dose: 5.0 mg/kg/injection, schedule: Q01DX011 (ip), vehicle: carboxymethylcellulose (CMC)", "result": "39 % of control"}, {"measurement": "T/C", "setting": "[2]", "result": "40 % of control"}, {"measurement": "T/C", "setting": "dose: 11.0 mg/kg/injection, schedule: Q01DX011 (ip), vehicle: other", "result": "73 % of control"}, {"measurement": "T/C", "setting": "dose: 16.0 mg/kg/injection, schedule: Q01DX011 (ip), vehicle: carboxymethylcellulose (CMC)", "result": "41 % of control"}, {"measurement": "T/C", "setting": "dose: 20.0 mg/kg/injection, schedule: Q01DX011 (ip), vehicle: carboxymethylcellulose (CMC)", "result": "30 % of control"}, {"measurement": "T/C", "setting": "dose: 22.0 mg/kg/injection, schedule: Q01DX011 (ip), vehicle: other", "result": "61 % of control"}, {"measurement": "T/C", "setting": "dose: 32.0 mg/kg/injection, schedule: Q01DX011 (ip), vehicle: carboxymethylcellulose (CMC)", "result": "6 % of control"}, {"measurement": "T/C", "setting": "dose: 44.0 mg/kg/injection, schedule: Q01DX011 (ip), vehicle: other", "result": "53 % of control"}, {"measurement": "T/C", "setting": "dose: 66.0 mg/kg/injection, schedule: Q01DX011 (ip), vehicle: other", "result": "37 % of control"}]}
{"smiles": "CC(=O)OCC1OC(n2cnc3c(=S)nc[nH]c32)C(OC(C)=O)C1OC(C)=O", "note": "(stereo not given)", "values": [{"measurement": "T/C", "setting": "dose: 0.2 mg/kg/injection, schedule: Q01DX011 (ip), vehicle: carboxymethylcellulose (CMC)", "result": "84 % of control"}, {"measurement": "T/C", "setting": "dose: 0.4 mg/kg/injection, schedule: Q01DX011 (ip), vehicle: carboxymethylcellulose (CMC)", "result": "93 % of control"}, {"measurement": "T/C", "setting": "dose: 0.9 mg/kg/injection, schedule: Q01DX011 (ip), vehicle: carboxymethylcellulose (CMC)", "result": "61 % of control"}, {"measurement": "T/C", "setting": "dose: 1.8 mg/kg/injection, schedule: Q01DX011 (ip), vehicle: carboxymethylcellulose (CMC)", "result": "14 % of control and 31 % of control"}, {"measurement": "T/C", "setting": "dose: 3.7 mg/kg/injection, schedule: Q01DX011 (ip), vehicle: carboxymethylcellulose (CMC)", "result": "6 % of control"}, {"measurement": "T/C", "setting": "dose: 7.5 mg/kg/injection, schedule: Q01DX011 (ip), vehicle: carboxymethylcellulose (CMC)", "result": "3 % of control"}, {"measurement": "T/C", "setting": "dose: 15.0 mg/kg/injection, schedule: Q01DX011 (ip), vehicle: carboxymethylcellulose (CMC)", "result": "2 % of control"}]}
{"smiles": "Cc1cnc(SCc2ccccc2Cl)nc1SCc1ccccc1Cl", "values": [{"measurement": "T/C", "setting": "dose: 31.0 mg/kg/injection, schedule: Q01DX011 (ip), vehicle: methylcellulose (MC)", "result": "81 % of control"}, {"measurement": "T/C", "setting": "dose: 62.0 mg/kg/injection, schedule: Q01DX011 (ip), vehicle: methylcellulose (MC)", "result": "65 % of control"}]}
{"smiles": "CCOC=Nc1c(N)ncnc1Cl", "values": [{"measurement": "T/C", "setting": "dose: 30.0 mg/kg/injection, schedule: Q01DX011 (ip), vehicle: carboxymethylcellulose (CMC)", "result": "67 % of control"}, {"measurement": "T/C", "setting": "dose: 50.0 mg/kg/injection, schedule: Q01DX011 (ip), vehicle: carboxymethylcellulose (CMC)", "result": "107 % of control"}, {"measurement": "T/C", "setting": "dose: 60.0 mg/kg/injection, schedule: Q01DX011 (ip), vehicle: carboxymethylcellulose (CMC)", "result": "34 % of control"}, {"measurement": "T/C", "setting": "dose: 62.5 mg/kg/injection, schedule: Q01DX011 (ip), vehicle: olive oil, sesame oil, peanut oil", "result": "62 % of control"}, {"measurement": "T/C", "setting": "dose: 100.0 mg/kg/injection, schedule: Q01DX011 (ip), vehicle: carboxymethylcellulose (CMC)", "result": "60 % of control"}, {"measurement": "T/C", "setting": "dose: 120.0 mg/kg/injection, schedule: Q01DX011 (ip), vehicle: carboxymethylcellulose (CMC)", "result": "10 % of control"}, {"measurement": "T/C", "setting": "dose: 125.0 mg/kg/injection, schedule: Q01DX011 (ip), vehicle: olive oil, sesame oil, peanut oil", "result": "65 % of control"}, {"measurement": "T/C", "setting": "dose: 200.0 mg/kg/injection, schedule: Q01DX011 (ip), vehicle: carboxymethylcellulose (CMC)", "result": "38 % of control"}, {"measurement": "T/C", "setting": "dose: 240.0 mg/kg/injection, schedule: Q01DX011 (ip), vehicle: carboxymethylcellulose (CMC)", "result": "2 % of control"}, {"measurement": "T/C", "setting": "dose: 250.0 mg/kg/injection, schedule: Q01DX011 (ip), vehicle: olive oil, sesame oil, peanut oil", "result": "43 % of control"}, {"measurement": "T/C", "setting": "dose: 400.0 mg/kg/injection, schedule: Q01DX011 (ip), vehicle: carboxymethylcellulose (CMC)", "result": "11 % of control"}, {"measurement": "T/C", "setting": "dose: 500.0 mg/kg/injection, schedule: Q01DX011 (ip), vehicle: olive oil, sesame oil, peanut oil", "result": "23 % of control"}]}
{"smiles": "Clc1ccc(CSc2ncnc3c2ncn3C2CCCCO2)cc1", "note": "(stereo not given)", "values": [{"measurement": "T/C", "setting": "dose: 20.0 mg/kg/injection, schedule: Q01DX011 (ip), vehicle: methylcellulose (MC)", "result": "84 % of control"}, {"measurement": "T/C", "setting": "dose: 65.0 mg/kg/injection, schedule: Q01DX011 (ip), vehicle: methylcellulose (MC)", "result": "31 % of control"}]}
{"smiles": "CC1CC(C)C(=O)C(C(=O)CC2CC(=O)NC(=O)C2)C1", "note": "(stereo not given)", "values": [{"measurement": "T/C", "setting": "dose: 125.0 mg/kg/injection, schedule: Q01DX011 (ip), vehicle: carboxymethylcellulose (CMC)", "result": "67 % of control"}]}
